Where “and” joins values, the source holds several entries; their conditions need not be identical. Equal entries are not always repeated. Toxic doses and inconclusive results are not listed.
Tested on: P388 leukemia ip, CD2F1 mice, survival T/C
Assay: NCI In Vivo Anticancer Drug Screen. Data for tumor model P388 Leukemia (intraperitoneal) in CD2F1 (CDF1) mice
Conditions: endpoint: median survival time, higher = longer survival
Outline: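 Mice carrying the transplanted tumor received test compound or vehicle. Survival was recorded in each group, and the value is the treated-group measurement divided by that of the vehicle-treated control group.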

[1] = dose: 100.0 mg/kg/injection, schedule: Q01DX001 (ip), vehicle: saline with Tween-80
[2] = dose: 200.0 mg/kg/injection, schedule: Q01DX001 (ip), vehicle: saline with Tween-80

SMILES: CC1(C)CC(OP(=[Se])(OC2CC(C)(C)N(O)C(C)(C)C2)OC2CC(C)(C)N(O)C(C)(C)C2)CC(C)(C)N1O
- T/C (dose: 12.5 mg/kg/injection, schedule: Q01DX001 (ip), vehicle: Klucel (hydroxypropylcellulose) (HPC)): 97 % of control
- T/C (dose: 25.0 mg/kg/injection, schedule: Q01DX001 (ip), vehicle: Klucel (hydroxypropylcellulose) (HPC)): 102 % of control
- T/C (dose: 50.0 mg/kg/injection, schedule: Q01DX001 (ip), vehicle: Klucel (hydroxypropylcellulose) (HPC)): 104 % of control

SMILES: O=C(O)C1CSC(c2ccc(Cl)cc2)N1 (stereo not given)
- T/C (dose: 50.0 mg/kg/injection, schedule: Q01DX009 (ip), vehicle: suspension in saline): 95 % of control
- T/C (dose: 100.0 mg/kg/injection, schedule: Q01DX009 (ip), vehicle: suspension in saline): 95 % of control
- T/C (dose: 200.0 mg/kg/injection, schedule: Q01DX009 (ip), vehicle: suspension in saline): 95 % of control and 96 % of control

SMILES: CCOC(=S)SCC(=O)C1(O)Cc2c(O)c3c(c(O)c2C(OC2CC(N)C(O)C(C)O2)C1)C(=O)c1c(OC)cccc1C3=O (stereo not given)
- T/C (dose: 1.56 mg/kg/injection, schedule: Q01DX009 (ip), vehicle: other): 120 % of control
- T/C (dose: 3.13 mg/kg/injection, schedule: Q01DX009 (ip), vehicle: other): 123 % of control
- T/C (dose: 37.5 mg/kg/injection, schedule: Q04DX003 (ip), vehicle: other): 121 % of control
- T/C (dose: 75.0 mg/kg/injection, schedule: Q04DX003 (ip), vehicle: other): 94 % of control
- T/C (dose: 150.0 mg/kg/injection, schedule: Q04DX003 (ip), vehicle: other): 99 % of control

SMILES: NC1CC2CCCCC2CC1c1ccccc1 (stereo not given)
- T/C (dose: 100.0 mg/kg/injection, schedule: Q01DX001 (ip), vehicle: Klucel (hydroxypropylcellulose) (HPC)): 91 % of control
- T/C (dose: 200.0 mg/kg/injection, schedule: Q01DX001 (ip), vehicle: Klucel (hydroxypropylcellulose) (HPC)): 97 % of control
- T/C (dose: 400.0 mg/kg/injection, schedule: Q01DX001 (ip), vehicle: Klucel (hydroxypropylcellulose) (HPC)): 96 % of control

SMILES: CCn1c2ccccc2c2cc(N=Nc3[nH]c4ccccc4c3CN(C)C)ccc21
- T/C (dose: 50.0 mg/kg/injection, schedule: Q01DX009 (ip), vehicle: saline with Tween-80): 107 % of control and 108 % of control (2×)
- T/C (dose: 100.0 mg/kg/injection, schedule: Q01DX009 (ip), vehicle: saline with Tween-80): 105 % of control and 106 % of control
- T/C (dose: 200.0 mg/kg/injection, schedule: Q01DX009 (ip), vehicle: saline with Tween-80): 100 % of control and 115 % of control and 118 % of control

SMILES: Cc1ccccc1N=Nc1ccc(N=Nc2cc(CN(C)C)c(O)c3ncccc23)c(C)c1
- T/C (dose: 50.0 mg/kg/injection, schedule: Q01DX005 (ip), vehicle: saline with Tween-80): 102 % of control
- T/C (dose: 100.0 mg/kg/injection, schedule: Q01DX005 (ip), vehicle: saline with Tween-80): 95 % of control
- T/C (dose: 200.0 mg/kg/injection, schedule: Q01DX005 (ip), vehicle: saline with Tween-80): 109 % of control

SMILES: OCC1CC2(C1)CC(CO)C2 (stereo not given)
- T/C [1]: 97 % of control
- T/C [2]: 104 % of control
- T/C (dose: 400.0 mg/kg/injection, schedule: Q01DX001 (ip), vehicle: saline with Tween-80): 99 % of control

SMILES: O=C(O)/C(Cl)=C(/Cl)C(=O)C(Cl)(Cl)Cl
- T/C (dose: 3.13 mg/kg/injection, schedule: Q01DX009 (ip), vehicle: distilled water + Tween-80): 108 % of control
- T/C (dose: 25.0 mg/kg/injection, schedule: Q01DX009 (ip), vehicle: distilled water + Tween-80): 155 % of control
- T/C (dose: 50.0 mg/kg/injection, schedule: Q01DX009 (ip), vehicle: distilled water + Tween-80): 155 % of control

SMILES: N#CC(C(=O)C(=O)Nc1ccc(Cl)cc1Cl)c1c(Cl)cccc1Cl (stereo not given)
- T/C (dose: 60.0 mg/kg/injection, schedule: Q01DX005 (ip), vehicle: saline with Tween-80): 100 % of control
- T/C (dose: 120.0 mg/kg/injection, schedule: Q01DX005 (ip), vehicle: saline with Tween-80): 101 % of control

SMILES: CN(C)CCNC1c2ccccc2-c2ccccc21
- T/C (dose: 50.0 mg/kg/injection, schedule: Q01DX005 (ip), vehicle: saline): 99 % of control
- T/C (dose: 100.0 mg/kg/injection, schedule: Q01DX005 (ip), vehicle: saline): 98 % of control
- T/C (dose: 200.0 mg/kg/injection, schedule: Q01DX005 (ip), vehicle: saline): 100 % of control

SMILES: CC1(c2cc(Cl)c(Cl)cc2Cl)NC(=O)NC1=O (stereo not given)
- T/C [1]: 103 % of control
- T/C [2]: 112 % of control

SMILES: Nc1ccn(C2OC(CCl)C(O)C2O)c(=O)n1 (stereo not given)
- T/C (dose: 6.25 mg/kg/injection, schedule: Q01DX009 (ip), vehicle: Klucel (hydroxypropylcellulose) (HPC)): 101 % of control
- T/C (dose: 12.5 mg/kg/injection, schedule: Q01DX009 (ip), vehicle: Klucel (hydroxypropylcellulose) (HPC)): 106 % of control
- T/C (dose: 100.0 mg/kg/injection, schedule: Q01DX009 (ip), vehicle: Klucel (hydroxypropylcellulose) (HPC)): 172 % of control
- T/C (dose: 100.0 mg/kg/injection, schedule: Q01DX009 (ip), vehicle: saline): 154 % of control
- T/C (dose: 200.0 mg/kg/injection, schedule: Q01DX009 (ip), vehicle: Klucel (hydroxypropylcellulose) (HPC)): 186 % of control
- T/C (dose: 200.0 mg/kg/injection, schedule: Q01DX009 (ip), vehicle: saline): 164 % of control
- T/C (dose: 400.0 mg/kg/injection, schedule: Q01DX009 (ip), vehicle: saline): 177 % of control

Reference: PubChem BioAssay AID330 (DTP/NCI, 2004)
